Laboratory results reported in patent US8772318B2, “Methods and compositions related to targeting monoacylglycerol lipase” (The Scripps Research Institute, priority 2008, dated 2014).
“Also recorded” adds a separate entry of the source.

How the values were obtained:
[1] = test system: human cancer cell lines (C8161, SKOV3, 231MFP, MUM2C, OVCAR3); experiment: Cell migration assay (Transwell); assay type: cell-based; details: for impaired migration of shMAGL cancer cells: 100 nM; for migration of cancer cells: 100 μM, 4 hr preincubation and coincubation with migration; for migration of MUM2C and OVCAR3 cells / migratory activity of shMAGL or JZL184-treated MAGL-OE cancer cells: 20 μM
Description: Cell migration, cell survival, and invasion studies. Migration assays were performed in Transwell chambers (Corning) with 8 μm pore-sized membranes coated with 10 μg/ml collagen for 4 h at 37° C. A total of 24 hr before the start of the migration assay, cancer cell lines were plated at a concentration of 1×10^6 cells per 6 cm dish. At the start of the migration assay, cells were harvested by washing two times with PBS and were then serum starved in serum-free media for 4 hr. Inhibitor, lipid or vehicle (0.1% DMSO) were preincubated with the cells during this 4 h time. Serum-starved cells were trypsinized, spun at 1400×g for 3 min, resuspended, and counted. 50,000 cells were seeded in the upper chamber of the transwells in 200 μl serum-free media (containing inhibitor, lipid or vehicle). Inhibitor, lipid or vehicle was also added to the lower chamber, and cells were allowed to migrate for 5 h (for C8161 and 231MFP cells) or 20 hr (SKOV3, MUM2C and OVCAR3 cells). The filters were then fixed and stained with Diff-Quik (Dade Behring). Cells that had not migrated through the chamber were removed with a cotton ball. The cells that migrated were counted at a magnification of 400×, and 4 fields were independently counted from each migration chamber. An average of cells in 4 fields for one migration chamber represents n=1.

[2] = test system: human cancer cell lines (C8161, SKOV3, 231MFP, MUM2C, OVCAR3); experiment: Lipid measurements in cancer cells; assay type: cell-based
Description: Pharmacological inhibition of MAGL in cancer cells. Pharmacological inhibition studies were conducted as described previously (Chiang et al., Chem. Biol. 13:1041-1050, 2006). Cancer cells were maintained in RPMI medium 1640 with 10% (v/v) fetal calf serum at 37° C. in a humidified atmosphere of 5% CO2/95% air. At 80% confluency, cells were trypsinized and counted using a hemocytometer, and 1×10^6 cells were plated in 6 cm dishes (subconfluent). […] After incubation for 4 hr, the cells were harvested and analyzed by ABPP or LC-MS.
Lipid measurements in cancer cells. Lipid measurements were conducted similarly to protocols described previously (Chiang et al., 2006; supra). Cancer cells were grown in serum-free media for 4 hrs to minimize the contribution of serum-derived lipids to the cellular profiles. The cells (1×10^6 cells/6 cm dish, 80% confluency) were washed with twice with phosphate buffer saline (PBS), isolated by centrifugation at 1,400×g, and dounce-homogenized in 4 ml of a 2:1:1 mixture of chloroform:methanol:Tris buffer. Samples were homogenized in the presence of the following synthetic standards: C12:0 MAGE (10 nmol), C15:0 FFA (10 nmol). Organic and aqueous layers were separated by centrifugation at 2000×g for 5 min and the organic layer was collected. The aqueous layer was acidified (for metabolites such as LPA) by adding 5% formic acid, followed by the addition of 2 ml chloroform. The mixture was vortexed, and the organic layers were combined, dried down under N2 and dissolved in 100 μl chloroform, of which 30 μl was analyzed by LC-MS.
LC-MS analysis was performed by using an Agilent 1100 LC-MSD SL instrument. […] Mobile phase A was composed of a 95:5 ratio of water:methanol, and mobile phase B consisted of 2-propanol, methanol, and water in a 60:35:5 ratio. Solvent modifiers such as 0.1% formic acid and 0.1% ammonium hydroxide were used to assist ion formation as well as to improve the LC resolution in both positive and negative ionization modes, respectively. The flow rate for each run started at 0.1 ml/min for 5 min, to alleviate backpressure associated with injecting chloroform. The gradient started at 0% B and increased linearly to 100% B over the course of 45 min with a flow rate of 0.4 ml/min, followed by an isocratic gradient of 100% B for 17 min at 0.5 ml/min before equilibrating for 8 min at 0% B with a flow rate of 0.5 ml/min. MS analysis was performed with an electrospray ionization (ESI) source. The capillary voltage was set to 3.0 kV, and the fragmentor voltage was set to 100 V. The drying gas temperature was 350° C., the drying gas flow rate was 10 L/min, and the nebulizer pressure was 35 psi.
Lipidomic analysis was performed in both targeted and untargeted mode by LC-MS analysis. Standard lipid classes were quantitated by targeting using selected ion monitoring (SIM) (except for very high-abundance metabolites which were quantitated by untargeted analysis) and identities of metabolites were confirmed by coelution of metabolites with their respective standards and mass accuracy to within 10 ppm as determined with an accurate mass Agilent 6520 Accurate Mass QTOF-MS-MS. These lipids were quantified by measuring the area under the peak and were normalized to an internal standard (C12:0 MAGE in positive mode or C15:0 FFA in negative mode). […]

MAGL [3] = target: T1, MAGL (Mus musculus, UniProt O35678); experiment: Competitive ABPP, mouse brain membrane proteome; assay type: biochemical
T1 construct: from tissue; host or cells: mouse brain membrane fraction (C57Bl/6 mice for the in vivo studies)
T1 sequence (O35678 1-303): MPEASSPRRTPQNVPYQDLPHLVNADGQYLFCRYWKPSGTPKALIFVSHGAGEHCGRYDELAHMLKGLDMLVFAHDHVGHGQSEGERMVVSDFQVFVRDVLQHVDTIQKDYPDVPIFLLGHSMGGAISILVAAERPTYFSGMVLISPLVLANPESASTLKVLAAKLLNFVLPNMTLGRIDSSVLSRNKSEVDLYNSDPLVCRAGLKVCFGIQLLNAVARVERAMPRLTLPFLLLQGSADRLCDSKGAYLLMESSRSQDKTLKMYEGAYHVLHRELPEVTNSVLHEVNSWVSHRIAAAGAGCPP
Excerpt: First, serine hydrolases are susceptible to covalent inactivation by specific chemical groups that show little or no cross-reactivity with other enzyme classes. […] Second, the functional state of serine hydrolases can be collectively profiled in native biological systems using activity-based protein profiling (ABPP) methods (Cravat et al., Annu Rev Biochem 77:383-414, 2008). ABPP of serine hydrolases uses reporter-tagged fluorophosphonates (FPs), which serve as general activity-based probes for this large and diverse enzyme class (Liu et al., Proc. Natl. Acad. Sci. U.S.A. 96:14694-9, 1999). When performed in a competitive mode, ABPP can serve as a powerful screen to evaluate the potency and selectivity of small-molecule enzyme inhibitors directly in complex proteomes. The screen can be performed as described in the art, e.g., Liu et al., Proc. Natl. Acad. Sci. U.S.A. 96:14694-9, 1999; Li et al., J. Am. Chem. Soc. 129:9594-5, 2007; Leung et al., Nat. Biotech. 21:687-91, 2003; and Greenbaum et al., Mol. Cell. Proteomics 1:60-68, 2002.
Competitive activity-based protein profiling (ABPP) experiments. In vitro inhibitor selectivity was examined using a competitive ABPP method as described in the art (e.g., Li et al., J. Am. Chem. Soc. 129:9594-5, 2007; and Leung et al., Nat. Biotech. 21:687-91, 2003). Briefly, mouse brain membrane proteomes, prepared as described herein, were diluted to 1 mg/ml in PBS and pre-incubated with varying concentrations of inhibitors (1 nM to 10 μM) for 30 min at 37° C. prior to the addition of a FP-rhodamine at a final concentration of 2 μM in a 50 μl of total reaction volume. After 30 min at room temperature, the reactions were quenched with 4×SDS-PAGE loading buffer, boiled for 5 min at 90° C., subjected to SDS-PAGE, and visualized in-gel using a flatbed fluorescence scanner.
Every 10 min, 50 ul of the reaction was removed and treated with FP-rhodamine (2 μM) for 2 min, quenched with 4×SDS-PAGE loading buffer, and boiled for 5 min at 90° C. The combined reactions were subjected to SDS-PAGE and visualized in-gel using a flatbed fluorescence scanner. The percentage activity remaining was determined by measuring the integrated optical density corresponding to the MAGL or FAAH bands and the results were fit to an exponential curve to determine the pseudo-first order rate constants.

MAGL [4] = target: T2, MAGL (Homo sapiens, UniProt Q99685); experiment: shRNA knockdown of MAGL, activity by ABPP and C20:4 MAG hydrolysis; assay type: cell-based; details: aggressive cancer lines, ABPP
T2 construct: endogenous in cells; host or cells: human cancer lines (C8161, MUM2B, MUM2C, SKOV3, OVCAR3, 231MFP, MCF7)
T2 sequence (Q99685 1-303): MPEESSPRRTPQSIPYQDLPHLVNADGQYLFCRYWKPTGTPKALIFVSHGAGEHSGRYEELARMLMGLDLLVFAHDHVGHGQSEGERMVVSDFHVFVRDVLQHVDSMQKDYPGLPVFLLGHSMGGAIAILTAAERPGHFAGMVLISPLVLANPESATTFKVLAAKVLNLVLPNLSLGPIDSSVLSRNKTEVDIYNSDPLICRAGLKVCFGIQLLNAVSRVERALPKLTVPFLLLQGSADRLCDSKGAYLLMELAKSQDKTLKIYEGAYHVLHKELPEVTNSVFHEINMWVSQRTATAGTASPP
Description: ABPP and hydrolytic activity assays of cancer cell proteomes. Identification and comparative quantitation of serine hydrolase activities from cancer cell proteomes by ABPP-MudPIT or gel-based ABPP was conducted as previously described using FP-biotin (5 μM) and FP-rhodamine (2 μM), respectively (Jessani et al., Proc. Natl. Acad. Sci. U.S.A 99:10335-10340, 2002; and Jessani et al., Nat. Methods 2:691-697, 2005). C20:4 MAG hydrolytic activity assays were performed as described previously (Blankman et al., Chem. Biol. 14:1347-1356, 2007). For ABPP experiments, cell lysate proteomes were treated with 2 μM FP-rhodamine for 30 min at room temperature (50 μl total reaction volume). Reactions were quenched with one volume of standard 4×SDS/PAGE loading buffer (reducing), separated by SDS/PAGE (10% acrylamide), and visualized in-gel with a Hitachi FMBio IIe flatbed fluorescence scanner (MiraiBio). Integrated band intensities were calculated for the labeled proteins and averaged from three independent cell samples to determine the level of each enzyme activity. IC50 values were determined from dose-response curves from three trials at each inhibitor concentration by using SigmaPlot 10.0. MAGL expression was also assessed by western blotting using standard procedures.
RNA interference studies in human cancer cell lines. […]

[5] = aggressive melanoma, ovarian, breast cancer cells

## COc1ccc(C(=O)c2c(C)n(CCN3CCOCC3)c3cc(I)ccc23)cc1 [AM630]
[1]; antagonist 1 μM, 4 hr
  migratory defect in shMAGL cancer cells: not rescued
[2]; antagonist 1 μM, 4 hr
  FFA levels in shControl and shMAGL cancer cells: unchanged

## COc1ccc(C(O)(c2ccc(OC)cc2)C2CCN(C(=O)Oc3ccc([N+](=O)[O-])cc3)CC2)cc1 [JZL175]
MAGL [3]
  selectivity for MAGL over FAAH and ABHD6 (competitive ABPP): selectivity for MAGL over both FAAH and ABHD6; also recorded: no or greatly reduced inhibitory activity on FAAH as well as ABHD6

## CCCCCCCCCCCCCCCC(=O)OC[C@@H](O)COP(=O)(O)O [LPA]
[1]; 4 hr
  impaired migration of shMAGL cancer cells: rescued the impaired migration

## CCCCC[C@H](O)/C=C/[C@H]1[C@H](O)CC(=O)[C@@H]1C/C=C\CCCC(=O)O [PGE2, prostaglandin E2]
[1]; 4 hr
  impaired migration of shMAGL cancer cells: rescued the impaired migration

## CCOC(=O)[C@@]1(CCCCCCOc2ccc(Cl)cc2)CO1 [etomoxir]
[1]
  migration of cancer cells: did not affect migration
[2]; 100 μM, 4 hr, exception C20:4 FFA, elevated in C8161 and SKOV3 cells
  FFA levels in cancer cells: did not alter FFA levels

## CCCCCCCCCCCCCCCC(=O)O [palmitic acid]
[1]; 4 h
  migration of MUM2C and OVCAR3 cells: increases the migration
  migratory activity of shMAGL or JZL184-treated MAGL-OE cancer cells: fully restored their migratory activity

## CCCCCCCCCCCCCCCCCC(=O)O [stearic acid]
[1]; 4 h
  migration of MUM2C and OVCAR3 cells: increases the migration
  migratory activity of shMAGL or JZL184-treated MAGL-OE cancer cells: fully restored their migratory activity

## COc1ccc(CN2CCNCC2)c(OC)c1OC [trimetazidine]
[1]
  migration of cancer cells: did not affect migration

## pertussis toxin
[1]; 100 ng/ml, 4 h
  enhanced migratory activity of MAGL-OE cancer cells: completely blocked

## shMAGL1: short hairpin RNA oligonucleotide for MAGL, 5′-CAACTTTCAAGGTCCTTGC-3′ (SEQ ID NO:1) (expressed or natural sequence)
MAGL [4]
  other serine hydrolase activities: unaffected
[2]; [5]
  FFA levels in shMAGL cells: corresponding reductions
  MAG levels in shMAGL cells: significant elevations
